Measured values taken from patent US20260275317A1, “CHIMERIC ENDOLYSINS WITH ACTIVITY AGAINST STREPTOCOCCI AND STAPHYLOCOCCI” (UNIVERSITEIT GENT, priority 2023, published 2026).

Legend:
[1] = test system: S. uberis in mastitic raw cow's milk; test: Challenge of mastitic raw cow's milk; type: cell-based, Streptococcus uberis; settings: milk of 4 cows, 8 h; 0.5 μM NC5, 50 μg/mL cloxacillin or both
Procedure: Raw cow's milk from S. uberis infected dairy cows was supplied by the milk control center of Flanders (MCC Vlaanderen). Upon arrival, the milk was serially diluted and plated on BHI agar to determine the bacterial load. Only milk with >10^5 […] CFU/mL S. uberis was included as a selection criterium. If needed, the raw milk was incubated during 8 h at 37° C. to artificially increase the initial bacterial load. […] Upon incubation at 37° C., every 2 h, 20 μL was transferred from each well to 180 μL dPBS, serially diluted and plated on BHI agar. Plates were incubated overnight and CFU/mL were calculated the next day. Undiluted, mastitic milk was always pipetted with ClipTip Pipette Tips (Westburg, The Netherlands) due to high viscosity. Mastitis isolates were confirmed as S. uberis by MALDI-TOF MS biotyping.

[2] = test system: S. uberis-infected murine mammary glands; test: Mouse model of S. uberis mastitis: Ly6G immunohistochemistry (neutrophil influx); type: in vivo; settings: 30 μg cloxacillin stand-alone
Source text: (§1) All experimental procedures on mice were executed at the Faculty of Veterinary Medicine of Ghent University (Merelbeke, Belgium). Breeding pairs of female and male CD-1 mice (Envigo, The Netherlands) were allowed to mate during two weeks, after which the dams gave birth approximately seven days later. Twelve days postpartum, the lactating dams were intraductally inoculated with a blunted 32 gauge pediatric needle in the fourth inguinal mammary gland pair after properly disinfecting the teat. These intraductal inoculations were always performed under general gas anesthesia, using a mixture of medical oxygen and isoflurane at 2.5-3.0% for induction and 1.5-2.0% for maintenance. The long-acting analgesic buprenorphine was administered at 10 μg/kg intraperitoneally for post-surgical pain relief. An inoculum dose of approximately […] colony forming units (CFU) of a clinical bovine mastitis S. uberis isolate in 100 μl dPBS was intraductally inoculated at 1 h post-weaning and mice were grouped ad random at 12 h post-infection (p.i.) and placed under gas anesthesia a second time to administer intramammary treatment. […] The treated mice were sedated 16 h p.i. (i.e., 4 h post-treatment). The therapeutics were diluted in dPBS to their desired concentration, mixed by pipetting and kept on melting ice until they were administered intraductally within 1 h after preparation. […]

[3] = test system: S. uberis-infected murine mammary glands; test: Mouse model of S. uberis mastitis: inflammatory protein profiling in mammary gland lysates; type: in vivo; settings: 30 μg cloxacillin stand-alone
Source text: All experimental procedures on mice were executed at the Faculty of Veterinary Medicine of Ghent University (Merelbeke, Belgium). Breeding pairs of female and male CD-1 mice (Envigo, The Netherlands) were allowed to mate during two weeks, after which the dams gave birth approximately seven days later. Twelve days postpartum, the lactating dams were intraductally inoculated with a blunted 32 gauge pediatric needle in the fourth inguinal mammary gland pair after properly disinfecting the teat. These intraductal inoculations were always performed under general gas anesthesia, using a mixture of medical oxygen and isoflurane at 2.5-3.0% for induction and 1.5-2.0% for maintenance. The long-acting analgesic buprenorphine was administered at 10 μg/kg intraperitoneally for post-surgical pain relief. An inoculum dose of approximately […] colony forming units (CFU) of a clinical bovine mastitis S. uberis isolate in 100 μl dPBS was intraductally inoculated at 1 h post-weaning and mice were grouped ad random at 12 h post-infection (p.i.) and placed under gas anesthesia a second time to administer intramammary treatment. […] The treated mice were sedated 16 h p.i. (i.e., 4 h post-treatment). The therapeutics were diluted in dPBS to their desired concentration, mixed by pipetting and kept on melting ice until they were administered intraductally within 1 h after preparation. Inoculum preparation was done by growing S. uberis to stationary phase in brain heart infusion (BHI), after which cells were washed with dPBS and diluted in dPBS to the desired concentration based on OD600 measurements.
The host response to the experimental mammary gland infection and subsequent therapy was investigated by determining the levels of inflammatory cytokines and chemokines in mammary gland lysates, obtained by mixing the homogenates with 300 μL caspase lysis buffer (CLB) containing protease inhibitors, and subsequent centrifugation (12,000 g; 4° C.; 20 min). Protein concentration of these lysates was determined using the Bradford protein assay. Standardization of the mammary gland lysates was done by dilution in CLB to assure equal protein concentrations. Levels of the selected inflammatory mediators TNF-α, MCP-1, M-& G-CSF as well as IL-1α, -1β, -6, & -8, were determined on mammary gland lysates using a ProcartaPlex Immunoassay. Quantification of CHI3L1 and LCN2 was performed by ELISA.

[4] = test system: S. uberis-infected murine mammary glands; test: Mouse model of S. uberis mastitis: bacterial load and clinical symptoms; type: in vivo; settings: 30 μg cloxacillin stand-alone
Source text: as §1

With `Cc1onc(-c2ccccc2Cl)c1C(=O)N[C@@H]1C(=O)N2[C@@H]1SC(C)(C)[C@@H]2C(=O)O` [cloxacillin] the “log10 reduction of S. uberis versus PBS control” value [1] was “significant (p<0.05) reductions in all 4 mastitic milk samples at 8 h”, the “reduced neutrophil influx (Ly6G-positive staining) versus placebo” value [2] was 1.8 fold and the “CHI3L1 reduction versus placebo” value [3] was 1.4 fold. The “IL-1α decrease versus placebo” value [3] was 1.2 fold, the “IL-1β decrease versus placebo” value [3] was 1.3 fold and the “IL-6 decrease versus placebo” value [3] was 2.0 fold. The “LCN2 reduction versus placebo” value [3] was 1.2 fold, the “MCP-1 reduction versus placebo” value [3] was 1.5 fold and the “MIP-2 decrease versus placebo” value [3] was 1.6 fold. The “TNF-α decrease versus placebo” value [3] was 1.4 fold, the “decrease in CFU numbers versus placebo” value [4] was 630 fold and the “decrease of bacterial load versus placebo” value ([4]; intramammary, 4 h post-treatment, all mice) was 55 fold.
